Where two headings read alike, the source gives them in different places. Starred links: 1 amine or outer side, 2 acyl side, 3 side chain; linkers in the order of their positions; H or OH if unused. Positions of bridges follow the written chain, without caps; N, C: chain ends. Non-standard residues stand in square brackets, D forms with d. Residues, ends and D or L forms follow the SMILES beside them. Chains are numbered I, II in the order given. Hexamethylenediamine = C(CCCN[*:2])CCN[*:1]; Dip = N[C@H](C(=O)O)C(c1ccccc1)c1ccccc1; Chg = N[C@H](C(=O)O)C1CCCCC1; NMeA = CN[C@@H](C)C(=O)O
What was measured:
BE(2)-C = test: RealTime-Glo MT cell viability assay; assay type: cell-based, Human
Procedure: (§1) Cell viability was measured in real time using RealTime-Glo MT Cell Viability Assay as according to manufacturer's instructions from Promega. Cells were seeded at 1 × 10^4 cells per well and treated with a range of doses of indicated antagonists, followed by continuous bioluminescence reading every 24 hours for 3 days using luminescent plate reader, Varioskan (SkanIT software). IC50 was determined using GraphPad Prism software.
(§2) To determine their efficacy in neuroblastoma, a panel of neuroblastoma cell lines including neuroblastoma patient-derived cell lines and noncancerous normal tissue-derived cell lines were treated with increasing doses of each antagonist (0–100 µmol/L), followed by real-time measurement of cell viability every 24 for 72 hours.

CHP212 = test: RealTime-Glo MT cell viability assay; assay type: cell-based, Human
Procedure: as §1, §2

KELLY = test: RealTime-Glo MT cell viability assay; assay type: cell-based, Human
Procedure: as §1, §2

NB1 = test: RealTime-Glo MT cell viability assay; assay type: cell-based, Human
Procedure: as §1, §2

[1] = test system: NBL-07-0317 patient-derived neuroblastoma cells; test: RealTime-Glo MT cell viability assay; assay type: cell-based, Human
Procedure: as §1, §2

[2] = test system: NBL01-1116 patient-derived neuroblastoma cells; test: RealTime-Glo MT cell viability assay; assay type: cell-based, Human
Procedure: as §1, §2

[3] = test system: NBL16-0118 patient-derived neuroblastoma cells; test: RealTime-Glo MT cell viability assay; assay type: cell-based, Human
Procedure: as §1, §2

[4] = test system: NBL27-0218A patient-derived neuroblastoma cells; test: RealTime-Glo MT cell viability assay; assay type: cell-based, Human
Procedure: as §1, §2

NLF = test: RealTime-Glo MT cell viability assay; assay type: cell-based, Human
Procedure: as §1, §2

SK-N-AS = test: RealTime-Glo MT cell viability assay; assay type: cell-based, Human
Procedure: as §1, §2

SK-N-SH = test: RealTime-Glo MT cell viability assay; assay type: cell-based, Human
Procedure: as §1, §2

XIAP (NanoLuc-XIAP) = biological target: T1, XIAP (NanoLuc-XIAP) (Homo sapiens, UniProt P98170); test: NanoBRET XIAP target engagement assay; assay type: binding; conditions: NanoBRET tracer displacement, read-out: apparent intracellular affinity to XIAP (EC50)
T1 construct: host or cells: BE(2)-C and KELLY human neuroblastoma cells
T1 sequence (P98170 whole entry): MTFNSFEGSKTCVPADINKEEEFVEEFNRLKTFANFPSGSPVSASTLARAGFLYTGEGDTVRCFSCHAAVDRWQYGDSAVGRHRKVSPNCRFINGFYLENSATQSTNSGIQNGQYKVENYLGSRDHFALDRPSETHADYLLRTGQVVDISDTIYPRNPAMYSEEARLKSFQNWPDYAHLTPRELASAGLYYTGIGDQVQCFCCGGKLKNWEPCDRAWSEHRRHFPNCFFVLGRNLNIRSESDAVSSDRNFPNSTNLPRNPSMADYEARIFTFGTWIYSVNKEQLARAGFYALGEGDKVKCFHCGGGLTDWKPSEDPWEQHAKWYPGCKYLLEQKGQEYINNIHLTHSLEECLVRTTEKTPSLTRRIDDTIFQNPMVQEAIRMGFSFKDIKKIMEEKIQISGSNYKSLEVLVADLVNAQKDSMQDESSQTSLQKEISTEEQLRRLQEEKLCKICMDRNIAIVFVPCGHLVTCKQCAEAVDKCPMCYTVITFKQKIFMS
Procedure: To better understand the mechanisms by which these compounds target XIAP in high-risk neuroblastoma, binding interactions between the antagonists and XIAP were first determined in BE(2)-C and KELLY cells using a NanoBRET quantitative target engagement assay. […] As the BRET signal was not completely abolished even at saturating A4 concentrations, NMR was conducted to further examine the binding interaction between A4 and XIAP (Supplementary Fig. S2A and S2B).
FIGURE 3 Binding and degradation of XIAP by A4 is necessary for targeting high-risk neuroblastoma cells. […] BRET signal was measured at 2 hours after treatment using a Tecan Infinite 200 Pro equipped with NanoBRET dual-filters (donor 460 nm and acceptor 618 nm) and determined via the formula (BRET ratio = values at 618 nm/values at 460 nm). […] Cells were treated with increasing dose of A4 or BV6 and luminescence was measured continuously in real time for 2 hours. Luminescence values were normalized to DMSO vehicle control and degradation profiles were generated using GraphPad Prism. Values were expressed as mean ± SD of three independent experiments conducted in duplicates. […] BRET signal was measured every 5 minutes for 6 hours after treatment using a Tecan equipped with NanoBRET dual-filters (donor 460 nm and acceptor 618 nm) and determined via the formula (BRET ratio = values at 618 nm/values at 460 nm). […]

For `CN[C@@H](C)C(=O)N[C@H](C(=O)N1CCC[C@H]1C(=O)N[C@H](C(=O)NCCCCCCNC(=O)[C@@H](NC(=O)[C@@H]1CCCN1C(=O)[C@@H](NC(=O)[C@H](C)NC)C1CCCCC1)C(c1ccccc1)c1ccccc1)C(c1ccccc1)c1ccccc1)C1CCCCC1` [BV6] (I: H-[NMeA][Chg]P[Dip] / II: H-[NMeA][Chg]P[Dip]; linker I:C-II:C via Hexamethylenediamine), which IC50 (BE(2)-C; 24 hours) is on record?
The IC50 was 21.2 µM.

And the IC50 (BE(2)-C; 48 hours)?
Its IC50 is 16.8 µM.

And the IC50 (BE(2)-C; 72 hours)?
Its IC50 is 16.5 µM.

What about the IC50 (CHP212; CHP212, 24 hours) of the same molecule?
Its IC50 is 10.4 µM.

What about the IC50 (CHP212; CHP212, 48 hours) of the same molecule?
Its IC50 is 9.9 µM.

What about the IC50 (CHP212; CHP212, 72 hours) of the same molecule?
The IC50 was 9.3 µM.

And the IC50 (KELLY; 24 hours)?
Its IC50 is 13.5 µM.

And the IC50 (KELLY; 48 hours)?
The IC50 was 12.9 µM.

What about the IC50 (KELLY; 72 hours) of the same molecule?
The IC50 was 10.1 µM.

And the IC50 (NB1; NB1, 24 hours)?
The IC50 was 7 µM.

What about the IC50 (NB1; NB1, 48 hours) of the same molecule?
The IC50 was 5.5 µM.

What about the IC50 (NB1; NB1, 72 hours) of the same molecule?
The IC50 was 3.8 µM.

What about the IC50 ([1]; NBL-07-0317, 24 hours) of the same molecule?
The IC50 was 8.1 µM.

And the IC50 ([1]; NBL-07-0317, 48 hours)?
The IC50 was 5.5 µM.

And the IC50 ([1]; NBL-07-0317, 72 hours)?
The IC50 was 4.8 µM.

And the IC50 ([2]; NBL01-1116, 24 hours)?
The IC50 was 14.5 µM.

What about the IC50 ([2]; NBL01-1116, 48 hours) of the same molecule?
Its IC50 is 9.3 µM.

What about the IC50 ([2]; NBL01-1116, 72 hours) of the same molecule?
Its IC50 is 8.5 µM.

What about the IC50 ([3]; NBL16-0118, 24 hours) of the same molecule?
The IC50 was 5.1 µM.

What about the IC50 ([3]; NBL16-0118, 48 hours) of the same molecule?
The IC50 was 2.8 µM.

What about the IC50 ([3]; NBL16-0118, 72 hours) of the same molecule?
The IC50 was 2.3 µM.

And the IC50 ([4]; 24 hours)?
Its IC50 is 5.9 µM.

And the IC50 ([4]; 48 hours)?
The IC50 was 3.6 µM.

And the IC50 ([4]; 72 hours)?
Its IC50 is 2.6 µM.

And the IC50 (NLF; 24 hours)?
The IC50 was 7.4 µM.

What about the IC50 (NLF; 48 hours) of the same molecule?
The IC50 was 3.8 µM.

What about the IC50 (NLF; 72 hours) of the same molecule?
The IC50 was 3.7 µM.

What about the IC50 (SK-N-AS; 24 hours) of the same molecule?
Its IC50 is 4.6 µM.

And the IC50 (SK-N-AS; 48 hours)?
The IC50 was 3.2 µM.

What about the IC50 (SK-N-AS; 72 hours) of the same molecule?
The IC50 was 2.6 µM.

What about the IC50 (SK-N-SH; 24 hours) of the same molecule?
Its IC50 is 12.4 µM.

And the IC50 (SK-N-SH; 48 hours)?
Its IC50 is 10.5 µM.

And the IC50 (SK-N-SH; 72 hours)?
Its IC50 is 9.7 µM.

And the EC50 (XIAP (NanoLuc-XIAP); BE(2)-C cells)?
Its EC50 is 0.21 µM.

And the EC50 (XIAP (NanoLuc-XIAP); KELLY cells)?
Its EC50 is 0.3 µM.

From PMC10681007, “Targeted Degradation of XIAP is Sufficient and Specific to Induce Apoptosis in MYCN-overexpressing High-risk Neuroblastoma” (Cancer Research Communications, 2023)
